Consider 29 compounds from patent US9149475B2, “Protein kinase C inhibitors and uses thereof” (Rigel Pharmaceuticals, Inc., priority 2009, dated 2015).

Broadly, the IC50 is the point on the concentration scale where inhibition reaches its midpoint.

The experiment deals with Human primary T cells. As to the kind of experiment: IL-2 ELISA, human primary T cell, anti-CD3+CD28+ (whole cell assay). In kind it is cell-based. To be noted: Homo sapiens, T-cell, 24 h, human primary T cells stimulated with anti-CD3 + anti-CD28, 24 hours. Summed up: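 PBMC-derived T cells, pre-expanded on αCD3/αCD28 with IL-2 and then washed free of IL-2, were preincubated with compound for 1 hr at 37° C (100,000 cells/well). They were then stimulated on 1 μg/ml αCD3 plus 5 μg/ml αCD28 for 24 h, and supernatant IL-2 was measured by ELISA. The counter-assay used 0.5 ng/ml PMA plus 0.1 μM ionomycin instead.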
Turning to `CC(=O)N1CCCC(Oc2ccc(Nc3ncc(F)c(NC4CC(C)(C)NC(C)(C)C4)n3)cc2OC(F)F)CC1` (centres unmarked) [III-42, 1-(4-(2-(difluoromethoxy)-4-(5-fluoro-4-(2,2,6,6-tetramethylpiperidin-4-ylamino)pyrimidin-2-ylamino)phenoxy)azepan-1-yl)ethanone], the IC50 was in the range of 500 to 1000 nM.

`CC(=O)N1CCCC(Oc2ccc(Nc3ncc(F)c(NC4CC(C)(C)N(C)C(C)(C)C4)n3)cc2OC(F)F)CC1` (centres unmarked) [III-43, 1-(4-(2-(difluoromethoxy)-4-(5-fluoro-4-(1,2,2,6,6-pentamethylpiperidin-4-ylamino)pyrimidin-2-ylamino)phenoxy)azepan-1-yl)ethanone]: the IC50 was less than 250 nM.

As to `CC(=O)N1CCC(Oc2ccc(Nc3ncc(F)c(NC4CC(C)(C)NC(C)(C)C4)n3)cc2OC(F)F)CC1` [III-44, 1-(4-(2-(difluoromethoxy)-4-(5-fluoro-4-(2,2,6,6-tetramethylpiperidin-4-ylamino)pyrimidin-2-ylamino)phenoxy)piperidin-1-yl)ethanone], the half-inhibitory concentration (IC50) lay within 500 to 1000 nM.

Consider `CC(=O)N1CCC(Oc2ccc(Nc3ncc(F)c(NC4CC(C)(C)N(C)C(C)(C)C4)n3)cc2OC(F)F)CC1` [III-45, 1-(4-(2-(difluoromethoxy)-4-(5-fluoro-4-(1,2,2,6,6-pentamethylpiperidin-4-ylamino)pyrimidin-2-ylamino)phenoxy)piperidin-1-yl)ethanone], for which the IC50 was 250 to 500 nM.

Consider `CC1(C)CC(Nc2nc(Nc3ccc(OC(C)(C)CCN4CCCC4)c(F)c3)ncc2F)CC(C)(C)N1` [III-46, 5-fluoro-N2-(3-fluoro-4-(2-methyl-4-(pyrrolidin-1-yl)butan-2-yloxy)phenyl)-N4-(2,2,6,6-tetramethylpiperidin-4-yl)pyrimidine-2,4-diamine], for which the IC50 lay within 500 to 1000 nM.

On to `CN1C(C)(C)CC(Nc2nc(Nc3ccc(OC(C)(C)CCN4CCCC4)c(F)c3)ncc2F)CC1(C)C` [III-47, 5-fluoro-N2-(3-fluoro-4-(2-methyl-4-(pyrrolidin-1-yl)butan-2-yloxy)phenyl)-N4-(1,2,2,6,6-pentamethylpiperidin-4-yl)pyrimidine-2,4-diamine], for which the IC50 was in the range of 500 to 1000 nM.

In the case of `CC1(C)CC(Nc2nc(Nc3cc(F)c(OC(C)(C)CCN4CCCC4)c(F)c3)ncc2F)CC(C)(C)N1` [III-48, N2-(3,5-difluoro-4-(2-methyl-4-(pyrrolidin-1-yl)butan-2-yloxy)phenyl)-5-fluoro-N4-(2,2,6,6-tetramethylpiperidin-4-yl)pyrimidine-2,4-diamine], the concentration for half-maximal inhibition (IC50) is greater than 1000 nM.

`CN1C(C)(C)CC(Nc2nc(Nc3cc(F)c(OC(C)(C)CCN4CCCC4)c(F)c3)ncc2F)CC1(C)C` [III-49, N2-(3,5-difluoro-4-(2-methyl-4-(pyrrolidin-1-yl)butan-2-yloxy)phenyl)-5-fluoro-N4-(1,2,2,6,6-pentamethylpiperidin-4-yl)pyrimidine-2,4-diamine]: the half-inhibitory concentration (IC50) was greater than 1000 nM.

For the compound `CC1(C)CC(Nc2nc(Nc3ccc(OC4CCN(CCF)CC4)c(OC(F)F)c3)ncc2F)CC(C)(C)N1` [III-50, N2-(3-(difluoromethoxy)-4-(1-(2-fluoroethyl)piperidin-4-yloxy)phenyl)-5-fluoro-N4-(2,2,6,6-tetramethylpiperidin-4-yl)pyrimidine-2,4-diamine], the half-inhibitory concentration (IC50) is 250 to 500 nM.

Turning to `CN1C(C)(C)CC(Nc2nc(Nc3ccc(OC4CCN(CCF)CC4)c(OC(F)F)c3)ncc2F)CC1(C)C` [III-51, N2-(3-(difluoromethoxy)-4-(1-(2-fluoroethyl)piperidin-4-yloxy)phenyl)-5-fluoro-N4-(1,2,2,6,6-pentamethylpiperidin-4-yl)pyrimidine-2,4-diamine], the half-maximal inhibitory concentration (IC50) is less than 250 nM.

On to `CN1C(C)(C)CC(Nc2nc(Nc3ccc(OC4CCN(Cc5ccccc5)CC4)c(OC(F)F)c3)ncc2F)CC1(C)C` [III-52, N2-(4-(1-benzylpiperidin-4-yloxy)-3-(difluoromethoxy)phenyl)-5-fluoro-N4-(1,2,2,6,6-pentamethylpiperidin-4-yl)pyrimidine-2,4-diamine], for which the IC50 fell in the range of 250 to 500 nM.

On to `CC1(C)CC(Nc2nc(Nc3ccc(OC4CCN(CCOCc5ccccc5)CC4)c(F)c3)ncc2F)CC(C)(C)N1` [III-53, N2-(4-(1-(2-(benzyloxy)ethyl)piperidin-4-yloxy)-3-fluorophenyl)-5-fluoro-N4-(2,2,6,6-tetramethylpiperidin-4-yl)pyrimidine-2,4-diamine], for which the concentration for half-maximal inhibition (IC50) fell in the range of 500 to 1000 nM.

`CN1C(C)(C)CC(Nc2nc(Nc3ccc(OC4CCN(CCOCc5ccccc5)CC4)c(F)c3)ncc2F)CC1(C)C` [III-54, N2-(4-(1-(2-(benzyloxy)ethyl)piperidin-4-yloxy)-3-fluorophenyl)-5-fluoro-N4-(1,2,2,6,6-pentamethylpiperidin-4-yl)pyrimidine-2,4-diamine]: the concentration for half-maximal inhibition (IC50) lay in the range of 500 to 1000 nM.

For `CC1(C)CC(Nc2nc(Nc3cc(F)c(OC4CCN(CCOCc5ccccc5)CC4)c(F)c3)ncc2F)CC(C)(C)N1` [III-55, N2-(4-(1-(2-(benzyloxy)ethyl)piperidin-4-yloxy)-3,5-difluorophenyl)-5-fluoro-N4-(2,2,6,6-tetramethylpiperidin-4-yl)pyrimidine-2,4-diamine], the 50% inhibitory concentration (IC50) was in the range of 500 to 1000 nM.

Turning to `CN1C(C)(C)CC(Nc2nc(Nc3cc(F)c(OC4CCN(CCOCc5ccccc5)CC4)c(F)c3)ncc2F)CC1(C)C` [III-56, N2-(4-(1-(2-(benzyloxy)ethyl)piperidin-4-yloxy)-3,5-difluorophenyl)-5-fluoro-N4-(1,2,2,6,6-pentamethylpiperidin-4-yl)pyrimidine-2,4-diamine], the half-maximal inhibitory concentration (IC50) was in the range of 500 to 1000 nM.

Turning to `CC1(C)CC(Nc2nc(Nc3ccc(OC4CCN(CCO)CC4)c(F)c3)ncc2F)CC(C)(C)N1` [III-57, 2-(4-(2-fluoro-4-(5-fluoro-4-(2,2,6,6-tetramethylpiperidin-4-ylamino)pyrimidin-2-ylamino)phenoxy)piperidin-1-yl)ethanol], the IC50 is greater than 1000 nM.

`CN1C(C)(C)CC(Nc2nc(Nc3ccc(OC4CCN(CCO)CC4)c(F)c3)ncc2F)CC1(C)C` [III-58, 2-(4-(2-fluoro-4-(5-fluoro-4-(1,2,2,6,6-pentamethylpiperidin-4-ylamino)pyrimidin-2-ylamino)phenoxy)piperidin-1-yl)ethanol]: the IC50 fell in the range of 500 to 1000 nM.

With `CC1(C)CC(Nc2nc(Nc3cc(F)c(OC4CCN(CCO)CC4)c(F)c3)ncc2F)CC(C)(C)N1` [III-59, 2-(4-(2,6-difluoro-4-(5-fluoro-4-(2,2,6,6-tetramethylpiperidin-4-ylamino)pyrimidin-2-ylamino)phenoxy)piperidin-1-yl)ethanol], the IC50 was greater than 1000 nM.

Consider `CN1C(C)(C)CC(Nc2nc(Nc3cc(F)c(OC4CCN(CCO)CC4)c(F)c3)ncc2F)CC1(C)C` [III-60, 2-(4-(2,6-difluoro-4-(5-fluoro-4-(1,2,2,6,6-pentamethylpiperidin-4-ylamino)pyrimidin-2-ylamino)phenoxy)piperidin-1-yl)ethanol], for which the IC50 was in the range of 250 to 500 nM.

Turning to `CC(C)Nc1cc(Nc2ncc(F)c(NC3CC(C)(C)NC(C)(C)C3)n2)ccc1OC(C)C` [III-61, 5-fluoro-N2-(4-isopropoxy-3-(isopropylamino)phenyl)-N4-(2,2,6,6-tetramethylpiperidin-4-yl)pyrimidine-2,4-diamine], the half-maximal inhibitory concentration (IC50) was greater than 1000 nM.

Take `CC(C)Nc1cc(Nc2ncc(F)c(NC3CC(C)(C)N(C)C(C)(C)C3)n2)ccc1OC(C)C` [III-62, 5-fluoro-N2-(4-isopropoxy-3-(isopropylamino)phenyl)-N4-(1,2,2,6,6-pentamethylpiperidin-4-yl)pyrimidine-2,4-diamine]: the IC50 was greater than 1000 nM.

As for `Cc1ccc(Nc2ncc(F)c(NC3CC(C)(C)NC(C)(C)C3)n2)cc1-c1nnnn1C` [III-63, 5-fluoro-N2-(4-methyl-3-(1-methyl-1H-tetrazol-5-yl)phenyl)-N4-(2,2,6,6-tetramethylpiperidin-4-yl)pyrimidine-2,4-diamine], the IC50 was 250 to 500 nM.

With `Cc1ccc(Nc2ncc(F)c(NC3CC(C)(C)N(C)C(C)(C)C3)n2)cc1-c1nnnn1C` [III-64, 5-fluoro-N2-(4-methyl-3-(1-methyl-1H-tetrazol-5-yl)phenyl)-N4-(1,2,2,6,6-pentamethylpiperidin-4-yl)pyrimidine-2,4-diamine], the half-maximal inhibitory concentration (IC50) is less than 250 nM.

For `CC(C)Oc1ccc(Nc2ncc(F)c(NC3CC(C)(C)NC(C)(C)C3)n2)cc1N(C)C(C)C` [III-65, 5-fluoro-N2-(4-isopropoxy-3-(isopropyl(methyl)amino)phenyl)-N4-(2,2,6,6-tetramethylpiperidin-4-yl)pyrimidine-2,4-diamine], the IC50 was greater than 1000 nM.

For the compound `CC(C)Oc1ccc(Nc2ncc(F)c(NC3CC(C)(C)N(C)C(C)(C)C3)n2)cc1N(C)C(C)C` [III-66, 5-fluoro-N2-(4-isopropoxy-3-(isopropyl(methyl)amino)phenyl)-N4-(1,2,2,6,6-pentamethylpiperidin-4-yl)pyrimidine-2,4-diamine], the IC50 was greater than 1000 nM.

For `CCc1nnnn1-c1cc(Nc2ncc(F)c(NC3CC(C)(C)NC(C)(C)C3)n2)ccc1OC(F)F` [III-67, N2-(4-(difluoromethoxy)-3-(5-ethyl-1H-tetrazol-1-yl)phenyl)-5-fluoro-N4-(2,2,6,6-tetramethylpiperidin-4-yl)pyrimidine-2,4-diamine], the half-inhibitory concentration (IC50) lay in the range of 250 to 500 nM.

On to `CN1C(C)(C)CC(Nc2nc(Nc3cccc(-c4nn[nH]n4)c3)ncc2F)CC1(C)C` [III-68, N2-(3-(2H-tetrazol-5-yl)phenyl)-5-fluoro-N4-(1,2,2,6,6-pentamethylpiperidin-4-yl)pyrimidine-2,4-diamine], for which the IC50 was greater than 1000 nM.

On to `CC1(C)CC(Nc2nc(Nc3cccc(-c4nn[nH]n4)c3)ncc2F)CC(C)(C)N1` [III-69, N2-(3-(2H-tetrazol-5-yl)phenyl)-5-fluoro-N4-(2,2,6,6-tetramethylpiperidin-4-yl)pyrimidine-2,4-diamine], for which the concentration for half-maximal inhibition (IC50) was greater than 1000 nM.

On to `CC(C)n1nnnc1-c1cccc(Nc2ncc(F)c(NC3CC(C)(C)N(C)C(C)(C)C3)n2)c1` [III-70, 5-fluoro-N2-(3-(1-isopropyl-1H-tetrazol-5-yl)phenyl)-N4-(1,2,2,6,6-pentamethylpiperidin-4-yl)pyrimidine-2,4-diamine], for which the IC50 is less than 250 nM.
